One assay concerns the target T1, His-tagged Parp-1 (Homo sapiens, UniProt P09874).
T1 construct: purchased Enzo Life Sciences GmbH, Lörrach, Germany
As to the kind of experiment: PARP-1 autoparsylation HTRF assay. The format is biochemical. The source says: Description of the PARP1 Assay
Biochemical Activity Testing of PARP-1: Autoparsylation Assay
The autoparsylation assay is run in two steps: the enzymatic reaction in which His-tagged Parp-1 transfers biotinylated ADP-ribose/ADP-ribose to itself from biotinylated NAD/NAD as co-substrate and the detection reaction where a time resolved FRET between cryptate labelled anti-His antibody bound to the His tag of the enzyme and Xlent® labelled-streptavidin bound the biotin-parsylation residue is analysed. The autoparsylation activity is detectable directly via the increase in HTRF signal.
The autoparsylation assay is performed as 384-well HTRF® (Cisbio, Codolet, France) assay format in Greiner low volume nb 384-well microtiter plates. 35 nM His-tagged Parp-1 (human, recombinant, Enzo Life Sciences GmbH, Lörrach, Germany) and a mixture of 125 nM bio-NAD (Biolog, Life science Inst., Bremen, Germany) and 800 nM NAD as co-substrate are incubated in a total volume of 6 μl (100 mM Tris/HCl, 4 mM Mg-chloride, 0.01% IGEPAL® CA630, 1 mM DTT, 0.5% DMSO, pH 8, 13 ng/μl activated DNA (BPS Bioscience, San Diego, US)) in the absence or presence of the test compound (10 dilution concentrations) for 150 min at 23° C. The reaction is stopped by the addition of 4 μl of the Stop/detection solution (70 nM SA-Xlent® (Cisbio, Codolet, France), 2.5 nM Anti-His-K® (Eu-labelled anti-His, Cisbio, Codolet, France) in 50 mM HEPES, 400 mM KF, 0.1% BSA, 20 mM EDTA, pH 7.0). After 1 h incubation at room temperature the HTRF iss measured with an Envision multimode reader (Perkin Elmer LAS Germany GmbH) at excitation wavelength 340 nm (laser mode) and emission wavelengths 615 nm and 665 nm. The ratio of the emission signals is determined. The full value used is the inhibitor-free reaction. The pharmacological zero value used is Olaparib (LClabs, Woburn, US) in a final concentration of 1 μM. The inhibitory values (IC50) are determined using either the program Symyx Assay Explorer® or Condosseo® from GeneData.
(TR-FRET usually uses a lanthanide donor and a delayed reading to cut background.)

For another assay, the system named is Tankyrase. As to the kind of experiment: Cellular inhibition of Tankyrase: Axin2 level in DLD1 cells (Luminex). The format is cell-based. The conditions noted are these: 24 hours, Axin2 increase, read-out: EC50 [M] TNKS cellular assay. Here is the method:
Measurement of Cellular Inhibition of Tankyrase
Since Tankyrases have been described to modulate cellular level of Axin2 (Huang et al., 2009; Nature) the increase of Axin2 level is used as read-out for determination of cellular inhibition of Tankyrases in a Luminex based assay.
Cells of the colon carcinoma cell line DLD1 are plated in 96 well plates with 1.5×10^4 cells per well. Next day, cells are treated with a serial dilution of test compound in seven steps as triplicates with a final DMSO concentration of 0.3%. After 24 hours, cells are lysed in lysis buffer (20 mM Tris/HCl pH 8.0, 150 mM NaCl, 1% NP40, 10% Glycerol) and lysates are cleared by centrifugation through a 96 well filter plate (0.65 μm). Axin2 protein is isolated from cell lysates by incubation with a monoclonal anti-Axin2 antibody (R&D Systems #MAB6078) that is bound to fluorescent carboxybeads. Then, bound Axin2 is specifically detected with a polyclonal anti-Axin2 antibody (Cell Signaling #2151) and an appropriate PE-fluorescent secondary antibody. The amount of isolated Axin2 protein is determined in a Luminex^200 machine (Luminex Corporation) according to the manufacturer's instruction by counting 100 events per well. Inhibition of Tankyrase by test compounds results in higher levels of Axin2 which directly correlates with an increase of detectable fluorescence. As controls cells are treated with solvent alone (neutral control) and with a Tankyrase reference inhibitor IWR-2 (3E-06 M) which refers as control for maximum increase of Axin2. For analysis, the obtained data are normalized against the untreated solvent control and fitted for determination of the EC50 values using the Assay Explorer software (Accelrys).

Assay [1] has as its target T2, GST-tagged Tnks-1 (1023-1327 aa) (Homo sapiens, UniProt O95271).
T2 construct: GST-tagged Tnks-1 (1023-1327 aa, prepared in-house); made in house
Description: TNKS1 activity ELISA (autoparsylation assay). The format is biochemical. As for the experimental part: (§1) Description of the TNKS1 and TNKS2 ELISA Assay
(§2) Biochemical Activity Testing of TNKS 1 and 2: Activity ELISA (Autoparsylation Assay)
(§3) For analysis of autoparsylation activity of TNKS 1 and 2 an activity ELISA iss performed: In the first step GST tagged TNKS is captured on a Glutathione coated plate. Then the activity assay with biotinylated NAD is performed in the absence/presence of the compounds. During the enzymatic reaction GST tagged TNKS transfers biotinylated ADP-ribose to itself from biotinylated NAD as co-substrate. For the detection streptavidin-HRP conjugate is added that binds to the biotinylated TNKS and is thereby captured to the plates. The amount of biotinylated resp. autoparsylated TNKS is detected with a luminescence substrate for HRP. The level of the luminescence signal correlates directly with the amount of autoparsylated TNKS and therefore with activity of TNKS.
(§4) The activity ELISA is performed in 384 well Glutathione coated microtiter plates (Express capture Glutathione coated plate, Biocat, Heidelberg, Germany). The plates are pre-equilibrated with PBS. Then the plates are incubated with 50 μl 20 ng/well GST-tagged Tnks-1 (1023-1327 aa, prepared in-house), respectively GST-tagged Tnks-2 (873-1166 aa, prepared in-house) in assay buffer (50 mM HEPES, 4 mM Mg-chloride, 0.05% Pluronic F-68, 2 mM DTT, pH 7.7) overnight at 4° C. The plates are washed 3 times with PBS-Tween-20. The wells are blocked by incubation at room temperature for 20 minutes with 50 μl blocking buffer (PBS, 0.05% Tween-20, 0.5% BSA). Afterwards the plates are washed 3 times with PBS-Tween-20. The enzymatic reaction is performed in 50 μl reaction solution (50 mM HEPES, 4 mM Mg-chloride, 0.05% Pluronic F-68, 1.4 mM DTT, 0.5% DMSO, pH 7.7) with 10 μM bio-NAD (Biolog, Life science Inst., Bremen, Germany) as co-substrate in the absence or presence of the test compound (10 dilution concentrations) for 1 hour at 30° C. The reaction is stopped by 3 times washing with PBS-Tween20. For the detection 50 μl of 20 ng/μl Streptavidin, HRP conjugate (MoBiTec, Göttingen, Germany) in PBS/0.05% Tween-20/0.01% BSA are added and the plates are incubated for 30 minutes at room temperature. After three times washing with PBS-Tween-20 50 μl of SuperSignal ELISA Femto Maximum sensitivity substrate solution (ThermoFisherScientific (Pierce), Bonn, Germany) are added. Following a 1 minute incubation at room temperature luminescence signals are measured with an Envision multimode reader (Perkin Elmer LAS Germany GmbH) at 700 nm. The full value used is the inhibitor-free reaction. The pharmacological zero value used is XAV-939 (Tocris) in a final concentration of 5 μM. The inhibitory values (IC50) are determined using either the program Symyx Assay Explorer® or Condosseo® from GeneData.

Assay [2] concerns the target T3, GST-tagged Tnks-2 (873-1166 aa) (Homo sapiens, UniProt Q9H2K2).
T3 construct: GST-tagged Tnks-2 (873-1166 aa, prepared in-house); made in house
As to the kind of experiment: TNKS2 activity ELISA (autoparsylation assay). The assay is classed as biochemical. As for the experimental part:
as §1, §2, §3, §4
A general note: ELISA stands for enzyme-linked immunosorbent assay.

A further assay has as its system DLD-1-cancer cells. To be noted: cited from earlier work.
Another assay relates to ρ-catenin. To be noted: by increasing the levels of the AXIN1 and AXIN2 proteins; cited from earlier work.

T1 sequence (P09874 whole entry): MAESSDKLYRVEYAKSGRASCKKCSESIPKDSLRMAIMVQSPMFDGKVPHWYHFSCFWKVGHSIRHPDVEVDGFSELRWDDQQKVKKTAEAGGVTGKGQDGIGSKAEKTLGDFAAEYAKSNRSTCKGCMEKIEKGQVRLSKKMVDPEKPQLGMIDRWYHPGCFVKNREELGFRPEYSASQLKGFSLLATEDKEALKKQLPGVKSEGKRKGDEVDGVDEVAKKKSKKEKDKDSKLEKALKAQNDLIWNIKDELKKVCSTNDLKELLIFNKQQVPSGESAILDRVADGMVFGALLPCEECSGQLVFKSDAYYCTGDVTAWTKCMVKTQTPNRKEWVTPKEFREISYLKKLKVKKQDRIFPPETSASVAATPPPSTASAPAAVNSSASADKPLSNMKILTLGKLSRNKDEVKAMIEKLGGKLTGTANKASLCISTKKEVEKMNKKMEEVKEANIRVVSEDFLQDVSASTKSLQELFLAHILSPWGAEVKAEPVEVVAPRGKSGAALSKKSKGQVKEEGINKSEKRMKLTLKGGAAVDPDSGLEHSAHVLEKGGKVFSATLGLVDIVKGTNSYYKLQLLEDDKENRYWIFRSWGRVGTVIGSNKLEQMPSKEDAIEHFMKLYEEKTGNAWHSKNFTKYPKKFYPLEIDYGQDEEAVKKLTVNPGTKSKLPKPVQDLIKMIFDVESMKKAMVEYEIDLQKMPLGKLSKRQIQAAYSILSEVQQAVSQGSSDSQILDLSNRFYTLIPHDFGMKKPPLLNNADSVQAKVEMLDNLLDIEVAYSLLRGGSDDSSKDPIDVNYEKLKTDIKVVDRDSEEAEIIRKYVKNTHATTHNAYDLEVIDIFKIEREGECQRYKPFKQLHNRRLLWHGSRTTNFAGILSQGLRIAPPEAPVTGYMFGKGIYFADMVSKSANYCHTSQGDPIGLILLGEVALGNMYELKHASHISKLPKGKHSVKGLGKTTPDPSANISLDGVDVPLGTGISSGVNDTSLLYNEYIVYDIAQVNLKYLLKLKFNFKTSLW
T3 sequence (Q9H2K2 873-1166): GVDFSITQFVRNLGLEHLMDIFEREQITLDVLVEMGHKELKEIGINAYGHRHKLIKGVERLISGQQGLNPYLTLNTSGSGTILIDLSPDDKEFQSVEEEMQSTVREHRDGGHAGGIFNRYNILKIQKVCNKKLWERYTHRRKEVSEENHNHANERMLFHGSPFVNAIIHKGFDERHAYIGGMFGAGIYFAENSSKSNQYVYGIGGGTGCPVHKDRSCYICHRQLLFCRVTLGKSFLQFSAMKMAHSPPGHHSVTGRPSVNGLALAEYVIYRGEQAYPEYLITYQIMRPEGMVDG
T2 sequence (O95271 1023-1327): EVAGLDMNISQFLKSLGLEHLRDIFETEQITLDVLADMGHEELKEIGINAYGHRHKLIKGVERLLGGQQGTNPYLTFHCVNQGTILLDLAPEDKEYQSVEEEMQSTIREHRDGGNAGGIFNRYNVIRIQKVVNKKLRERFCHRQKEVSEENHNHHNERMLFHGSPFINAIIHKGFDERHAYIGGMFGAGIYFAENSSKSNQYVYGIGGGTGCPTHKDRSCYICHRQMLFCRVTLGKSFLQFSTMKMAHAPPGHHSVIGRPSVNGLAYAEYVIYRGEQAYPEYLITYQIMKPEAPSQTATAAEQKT

For the compound `COCCn1cc(-c2ccc(C(=O)C3CCN(C(=O)N(C)c4ccc(OC)cc4)CC3)cc2)cn1` [Compound A30, 4-{4-[1-(2-methoxy-ethyl)-1H-pyrazol-4-yl]-benzoyl}-piperidine-1-carboxylic acid (4-methoxy-phenyl)-methyl-amide], the IC50 (as a rule, the concentration at which inhibition is half-maximal) is 3000 to 50000 nM at His-tagged Parp-1, less than 300 nM in assay [1] and less than 300 nM in assay [2]. Besides, the EC50 (as a rule, the concentration that produces a half-maximal response) in the assay on Tankyrase is less than 3e-07 M.
Take `CCn1cc(-c2ccc(C(=O)C3CCN(C(=O)N(C)c4ccc(OC)cc4)CC3)cc2)cn1` [Compound A33, 4-[4-(1-ethyl-1H-pyrazol-4-yl)-benzoyl]-piperidine-1-carboxylic acid (4-methoxy-phenyl)-methyl-amide]: the figures for the IC50 (against His-tagged Parp-1; in assay [1]; in assay [2]) were 3000 to 50000 nM, less than 300 nM and less than 300 nM, respectively. In addition, the concentration giving a half-maximal response (EC50) in the assay with Tankyrase is less than 3e-07 M.
Turning to `COc1ccc(N(C)C(=O)N2CCC(C(=O)c3ccc(-c4cnn(CCN5CCCC5)c4)cc3)CC2)cc1` [Compound A35, 4-{4-[1-(2-pyrrolidin-1-yl-ethyl)-1H-pyrazol-4-yl]-benzoyl}-piperidine-1-carboxylic acid (4-methoxy-phenyl)-methyl-amide], the half-inhibitory concentration (IC50) at His-tagged Parp-1 is 3000 to 50000 nM; in assay [1] it was less than 300 nM; in assay [2] it was less than 300 nM. Besides, the EC50 in the assay on Tankyrase was less than 3e-07 M.
On to `CCn1cc(-c2ccc(N(C)C(=O)N3CCC(C(=O)c4ccc(OC)cc4)CC3)cc2)cn1` [Compound A34, 4-(4-methoxy-benzoyl)-piperidine-1-carboxylic acid [4-(1-ethyl-1H-pyrazol-4-yl)-phenyl]-methyl-amide], for which the IC50 against His-tagged Parp-1 is 3000 to 50000 nM; in assay [1], less than 300 nM; in assay [2], less than 300 nM. For the same compound, in the assay with Tankyrase, the EC50 is less than 3e-07 M.
Take `COc1ccc(C(=O)C2CCN(C(=O)N(C)c3ccc(-c4cnn(CCN5CCCC5)c4)cc3)CC2)cc1` [Compound A36, 4-(4-methoxy-benzoyl)-piperidine-1-carboxylic acid methyl-{4-[1-(2-pyrrolidin-1-yl-ethyl)-1H-pyrazol-4-yl]-phenyl}-amide]: the IC50 against His-tagged Parp-1 is 3000 to 50000 nM; in assay [1], less than 300 nM; in assay [2] it was less than 300 nM. Further, in the assay with Tankyrase, the EC50 was less than 3e-07 M.
For the compound `COCCn1cc(-c2ccc(C(=O)C3CCN(C(=O)N(C)c4ccc(-c5cnn(CCOC)c5)cc4)CC3)cc2)cn1` [Compound A32, 4-{4-[1-(2-methoxy-ethyl)-1H-pyrazol-4-yl]-benzoyl}-piperidine-1-carboxylic acid {4-[1-(2-methoxy-ethyl)-1H-pyrazol-4-yl]-phenyl}-methyl-amide], the half-inhibitory concentration (IC50) against His-tagged Parp-1 was 3000 to 50000 nM; in assay [1], less than 300 nM; in assay [2], less than 300 nM. In addition, the EC50 in the assay on Tankyrase is less than 3e-07 M.
As to `CCOC(=O)CN(C(=O)N1CCC(C(=O)c2ccccc2)CC1)c1ccccc1` [Compound A39, [(4-benzoyl-piperidine-1-carbonyl)-phenyl-amino]-acetic acid ethyl ester], the concentration for half-maximal inhibition (IC50) against His-tagged Parp-1 was 3000 to 50000 nM; in assay [1], less than 300 nM; in assay [2], less than 300 nM. Besides, the concentration giving a half-maximal response (EC50) in the assay with Tankyrase was in the range of 3e-07 to 3e-06 M.
For the compound `Oc1nc(-c2ccc(C(F)(F)F)cc2)nc2c1CSCC2` [XAV939], the “growth of DLD-1-cancer cells” value with DLD-1-cancer cells was “inhibits growth”. Moreover, the “Wnt-stimulated accumulation of ρ-catenin” value in the assay on ρ-catenin is reported as “blocked”.
As to `COCCn1cc(-c2ccc(N(C)C(=O)N3CCC(C(=O)c4ccc(OC)cc4)CC3)cc2)cn1` [Compound A31, 4-(4-methoxy-benzoyl)-piperidine-1-carboxylic acid {4-[1-(2-methoxy-ethyl)-1H-pyrazol-4-yl]-phenyl}-methyl-amide], the results for the IC50 (against His-tagged Parp-1; in assay [1]; in assay [2]) were 3000 to 50000 nM, less than 300 nM and less than 300 nM, respectively. Further, in the assay with Tankyrase, the EC50 is less than 3e-07 M.

Values taken from patent publication US9770446B2, “Piperidine urea derivatives” (MERCK PATENT GMBH, priority 2013, dated 2017).
